Patent US6452032B1, “Organosilyl compounds having nuclear hormone receptor modulating activity” (Allergan Sales, LLC, priority 1999, dated 2002)
Read-outs that look alike come from different tables or passages of the source.

Tests used:
[1] = target: T1, RARβ (Homo sapiens, UniProt P10826); experiment: Competition binding assay, radiolabeled all-trans-retinoic acid, RARβ
T1 construct: expressed in transfected cells
T1 sequence (P10826 1-455): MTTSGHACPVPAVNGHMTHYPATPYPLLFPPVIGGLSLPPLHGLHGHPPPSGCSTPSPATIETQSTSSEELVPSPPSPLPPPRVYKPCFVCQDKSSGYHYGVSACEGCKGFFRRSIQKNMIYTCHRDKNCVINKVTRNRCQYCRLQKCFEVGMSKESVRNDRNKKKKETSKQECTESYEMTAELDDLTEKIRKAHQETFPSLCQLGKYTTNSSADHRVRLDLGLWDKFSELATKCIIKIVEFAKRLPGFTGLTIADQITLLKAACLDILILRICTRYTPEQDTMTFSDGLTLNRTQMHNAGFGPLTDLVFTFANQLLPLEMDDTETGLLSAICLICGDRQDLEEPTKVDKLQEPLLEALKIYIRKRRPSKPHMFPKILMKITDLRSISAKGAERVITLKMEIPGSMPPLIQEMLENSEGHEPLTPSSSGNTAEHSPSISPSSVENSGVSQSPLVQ
Experimental: (§1) Binding assays were performed using a classic competition assay format in which cloned receptor RAR mand RXR molecules were first loaded with either radiolabeled all-trans-retinoic acid (RAR) or radiolabeled 9-cis retinoic acid (RXR), and then the amount of radioactivity liberated with increasing concentration of test compound was measured.
(§2) These compounds are designated AGN 192192, AGN 192337, AGN 192294, AGN 192295, and AGN 192452, respectively. EC50 designates the concentration of the tested compound which was able to give a 50% maximal transcription of the reporter gene; KD50 indicates the concentration of the tested compound at which 50% of the compound molecules are bound to the receptor. NT indicates those points that were not tested in the particular experiment.

[2] = target: T2, RXRγ (Homo sapiens, UniProt P48443); experiment: Competition binding assay, radiolabeled 9-cis retinoic acid, RXRγ; settings: competition with radiolabeled 9-cis retinoic acid; read-out: Bind (KD50) RXRγ
T2 construct: encoding the full length receptors RARα, RARβ, RARγ, RXRα, RXRβ, and RXRγ; expressed in transfected cells
T2 sequence (P48443 1-463): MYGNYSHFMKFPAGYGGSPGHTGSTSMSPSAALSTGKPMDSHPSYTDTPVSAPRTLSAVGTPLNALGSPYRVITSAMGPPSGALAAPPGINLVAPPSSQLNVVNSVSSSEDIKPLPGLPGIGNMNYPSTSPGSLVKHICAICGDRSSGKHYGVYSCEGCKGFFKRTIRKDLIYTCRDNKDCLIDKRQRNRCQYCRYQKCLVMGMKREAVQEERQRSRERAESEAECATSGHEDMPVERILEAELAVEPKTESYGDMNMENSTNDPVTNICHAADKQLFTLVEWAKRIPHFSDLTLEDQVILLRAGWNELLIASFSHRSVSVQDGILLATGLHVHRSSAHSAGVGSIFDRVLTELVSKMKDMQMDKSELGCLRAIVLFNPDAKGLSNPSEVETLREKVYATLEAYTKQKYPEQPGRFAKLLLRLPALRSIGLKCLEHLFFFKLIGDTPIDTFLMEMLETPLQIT
Experimental: as §1, §2

[3] = target: T1, RARβ; experiment: Transactivation assay, luciferase reporter, full length RARβ; assay type: cell-based
Experimental: (§3) Retinoic acid receptor transactivation activity and binding efficiencies were determined essentially as described in U.S. Pat. Nos.: 5,298,429 and 5,071,773, incorporated by reference herein. Transactivation assays employed expression plasmids encoding the full length receptors RARα, RARβ, RARγ, RXRα, RXRβ, and RXRγ. Reporter plasmids contained the herpes virus thymidine kinase promoter and the appropriate retinoid acid receptor response element (RAREs) or retinoid X receptor response element (RXREs) positioned upstream of an open coding region encoding firefly luciferase.
as §2

[4] = target: T3, RXRβ (Homo sapiens, UniProt P28702); experiment: Competition binding assay, radiolabeled 9-cis retinoic acid, RXRβ; settings: competition with radiolabeled 9-cis retinoic acid; read-out: Bind (KD50) RXRβ
T3 construct: encoding the full length receptors RARα, RARβ, RARγ, RXRα, RXRβ, and RXRγ; expressed in transfected cells
T3 sequence (P28702 1-533): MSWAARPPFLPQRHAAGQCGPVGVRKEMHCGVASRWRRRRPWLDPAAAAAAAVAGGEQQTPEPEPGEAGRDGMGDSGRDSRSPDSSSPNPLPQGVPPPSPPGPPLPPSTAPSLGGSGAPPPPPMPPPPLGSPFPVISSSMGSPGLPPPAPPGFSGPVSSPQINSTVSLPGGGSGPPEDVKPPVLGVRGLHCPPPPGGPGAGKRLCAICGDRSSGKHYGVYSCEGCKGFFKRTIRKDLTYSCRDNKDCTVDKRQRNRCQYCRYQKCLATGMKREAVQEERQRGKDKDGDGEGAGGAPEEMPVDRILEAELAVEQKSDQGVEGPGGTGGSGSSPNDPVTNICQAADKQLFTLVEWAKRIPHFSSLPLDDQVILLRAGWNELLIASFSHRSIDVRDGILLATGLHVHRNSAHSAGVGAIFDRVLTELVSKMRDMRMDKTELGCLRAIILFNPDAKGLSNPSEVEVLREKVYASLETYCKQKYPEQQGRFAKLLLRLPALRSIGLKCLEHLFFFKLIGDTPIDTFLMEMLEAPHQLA
Experimental: as §1, §2

[5] = target: T4, RXRα (Homo sapiens, UniProt P19793); experiment: Competition binding assay, radiolabeled 9-cis retinoic acid, RXRα; settings: competition with radiolabeled 9-cis retinoic acid; read-out: Bind (KD50) RXRα
T4 construct: encoding the full length receptors RARα, RARβ, RARγ, RXRα, RXRβ, and RXRγ; expressed in transfected cells
T4 sequence (P19793 1-462): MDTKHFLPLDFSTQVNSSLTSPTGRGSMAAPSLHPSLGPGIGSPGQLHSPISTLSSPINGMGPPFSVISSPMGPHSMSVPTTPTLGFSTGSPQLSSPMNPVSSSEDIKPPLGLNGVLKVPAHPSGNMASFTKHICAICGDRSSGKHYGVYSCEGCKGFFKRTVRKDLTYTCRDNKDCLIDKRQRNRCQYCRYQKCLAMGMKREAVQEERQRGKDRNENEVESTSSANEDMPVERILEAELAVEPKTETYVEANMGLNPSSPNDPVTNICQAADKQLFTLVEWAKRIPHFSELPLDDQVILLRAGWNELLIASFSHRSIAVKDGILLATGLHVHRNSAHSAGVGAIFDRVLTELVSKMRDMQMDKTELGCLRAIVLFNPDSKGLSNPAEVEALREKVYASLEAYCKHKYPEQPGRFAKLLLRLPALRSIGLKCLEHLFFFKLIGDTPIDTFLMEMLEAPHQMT
Experimental: as §1, §2

[6] = target: T3, RXRβ; experiment: Transactivation assay, luciferase reporter, full length RXRβ; assay type: cell-based; settings: concentration giving 50% maximal transcription of the reporter gene; read-out: Trans (EC50) RXRβ
Experimental: as §3, §2

[7] = target: T4, RXRα; experiment: Transactivation assay, luciferase reporter, full length RXRα; assay type: cell-based; settings: concentration giving 50% maximal transcription of the reporter gene; read-out: Trans (EC50) RXRα
Experimental: as §3, §2

[8] = target: T2, RXRγ; experiment: Transactivation assay, luciferase reporter, full length RXRγ; assay type: cell-based; settings: concentration giving 50% maximal transcription of the reporter gene; read-out: Trans (EC50) RXRγ
Experimental: as §3, §2

[9] = target: T5, RARα (Homo sapiens, UniProt P10276); experiment: Transactivation assay, luciferase reporter, full length RARα; assay type: cell-based; settings: concentration giving 50% maximal transcription of the reporter gene; read-out: Trans (EC50) RARα
T5 sequence (P10276 1-462): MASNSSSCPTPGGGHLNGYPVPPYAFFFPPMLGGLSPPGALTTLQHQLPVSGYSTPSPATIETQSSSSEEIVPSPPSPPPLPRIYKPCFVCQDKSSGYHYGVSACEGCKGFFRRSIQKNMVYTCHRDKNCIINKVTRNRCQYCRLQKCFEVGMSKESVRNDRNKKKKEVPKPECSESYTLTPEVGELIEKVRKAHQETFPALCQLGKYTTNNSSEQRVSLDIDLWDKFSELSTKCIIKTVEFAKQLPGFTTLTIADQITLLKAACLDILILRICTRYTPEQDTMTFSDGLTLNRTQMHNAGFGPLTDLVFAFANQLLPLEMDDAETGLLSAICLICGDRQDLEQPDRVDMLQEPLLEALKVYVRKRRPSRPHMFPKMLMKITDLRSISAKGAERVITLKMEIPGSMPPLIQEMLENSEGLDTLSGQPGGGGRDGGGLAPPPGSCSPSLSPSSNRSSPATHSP
Experimental: as §3, §2

[10] = target: T6, RARγ (Homo sapiens, UniProt P13631); experiment: Competition binding assay, radiolabeled all-trans-retinoic acid, RARγ
T6 sequence (P13631 1-454): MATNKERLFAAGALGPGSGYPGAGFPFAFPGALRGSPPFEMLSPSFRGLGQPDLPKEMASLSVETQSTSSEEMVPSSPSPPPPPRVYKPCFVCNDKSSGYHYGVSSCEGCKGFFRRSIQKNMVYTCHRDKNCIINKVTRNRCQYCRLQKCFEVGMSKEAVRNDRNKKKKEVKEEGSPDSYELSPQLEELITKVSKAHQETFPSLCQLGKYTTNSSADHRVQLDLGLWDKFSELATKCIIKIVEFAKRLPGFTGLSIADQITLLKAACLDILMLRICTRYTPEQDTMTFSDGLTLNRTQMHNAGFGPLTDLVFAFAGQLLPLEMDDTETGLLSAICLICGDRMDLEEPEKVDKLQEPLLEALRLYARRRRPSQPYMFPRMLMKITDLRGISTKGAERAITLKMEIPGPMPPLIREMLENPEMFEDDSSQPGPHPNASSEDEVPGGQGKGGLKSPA
Experimental: as §1, §2

[11] = target: T5, RARα; experiment: Competition binding assay, radiolabeled all-trans-retinoic acid, RARα
Experimental: as §1, §2

[12] = target: T6, RARγ; experiment: Transactivation assay, luciferase reporter, full length RARγ; assay type: cell-based
Experimental: as §3, §2

[13] = competition with radiolabeled all-trans-retinoic acid, read-out: Bind (KD50) RARβ
[14] = concentration giving 50% maximal transcription of the reporter gene, read-out: Trans (EC50) RARβ
[15] = competition with radiolabeled all-trans-retinoic acid, read-out: Bind (KD50) RARγ
[16] = competition with radiolabeled all-trans-retinoic acid, read-out: Bind (KD50) RARα

## Cc1cc2c(cc1/C(=C/c1ccc(C(=O)C(=O)O)cc1)[Si](C)(C)C)C(C)(C)CCC2(C)C [Compound 192192]
[1]; [13]
  Kd: 699 nM
[2]
  Kd: > 1000 nM
[3]; [14]
  EC50: 88 nM
[4]
  Kd: > 1000 nM
[5]
  Kd: > 1000 nM
[6]
  EC50: 780 nM
[7]
  EC50: 990 nM
[8]
  EC50: 960 nM
[9]
  EC50: 550 nM
[10]; [15]
  Kd: 2020 nM
[11]; [16]
  Kd: 2640 nM

## CC1(C)CC(C)(C)c2cc(/C(=C/c3ccc(C(=O)C(=O)O)cc3)[Si](C)(C)C)ccc2O1 [Compound 192452]
[1]; [13]
  Kd: 3300 nM
[7]
  EC50: 3100 nM
[8]
  EC50: 2900 nM
[10]; [15]
  Kd: 4520 nM

## CC1(C)CCC(C)(C)c2cc(/C(=C/c3ccc(C(=O)O)s3)[Si](C)(C)C)ccc21 [Compound 192295]
[1]; [13]
  Kd: 499 nM
[3]; [14]
  EC50: 290 nM
[12]; concentration giving 50% maximal transcription of the reporter gene, read-out: Trans (EC50) RARγ
  EC50: 330 nM
[9]
  EC50: 350 nM
[10]; [15]
  Kd: 1550 nM
[11]; [16]
  Kd: 1300 nM

## CC1(C)CCC(C)(C)c2cc(/C(=C/c3ccc(C(=O)C(=O)O)cc3)[Si](C)(C)C)ccc21 [Compound 192337]
[1]
  Kd: 2430 nM
[3]
  EC50: 260 nM
[12]
  EC50: 1500 nM
[10]
  Kd: 5840 nM
[11]
  Kd: 2280 nM

## Cc1cc2c(cc1/C(=C/c1ccc(C(=O)O)s1)[Si](C)(C)C)C(C)(C)CCC2(C)C [Compound 192294]
[1]; [13]
  Kd: 8000 nM
[10]; [15]
  Kd: 8940 nM
